Laboratory results from publication PMC9265729, “A Genetic Toxicology Study of the Rapid Detection of Nitrosamine Compounds by the rpsL Gene Mutation Assay” (Foods, 2022).
Values joined by “and” are separate entries in the source; they are usually repeats but may differ in a detail not shown here. Identical values can stand only once.

Columns and labels:
rpsL gene [1] = assay: rpsL gene mutation rate at the cellular level (E. coli MF101 + pMOL21 cultured with mutagen, Amp/Str plate selection); settings: for Mutation Rate of rpsL (mean ± SD): E. coli MF101 + pMOL21, mean of 4 experiments; for Mutation Rate of rpsL (single experiment): E. coli MF101 + pMOL21, single replicate; for genotoxicity / mutagenicity in words: NDEA, NDPA at 10 ppm, EB at lower concentrations
Protocol: The mutagenicity detection of nitrosamine compounds was carried out using the rpsL gene on plasmid pMOL21 as a selectable marker. The ribosomal protein S12 encoded by the rpsL gene can form a complex with streptomycin and enhance the ability of streptomycin to bind to 16 S rRNA, thereby preventing the initiation of […]. When the rpsL gene is mutated, the interaction between 16 S rRNA and streptomycin is disrupted, resulting in cell resistance to streptomycin.
We adopted Escherichia coli MF101, whose rpsL gene is mutated, so this strain has streptomycin resistance. The plasmid pMOL21 contains ampicillin as a selection marker and the correct rpsL gene. […] For specific information on strains and plasmids, please refer to [14].
E. coli MF101 + pMOL21 were cultured with different concentrations (10 ppm, 100 ppm, or 1000 ppm) of NDEA or NDPA. Ten hours after growth, the strains were collected and spread on plates containing ampicillin (Amp^+, 50 μg/mL) to determine the total number of transformed cells and spread on plates containing ampicillin and streptomycin (Amp^+, Str^+, 50 μg/mL) to determine the number of colonies with rpsL gene mutations. The mutation rate is the ratio of the number of mutant colonies to the total number of colonies. […] The experimental data and images were statistically analyzed by Origin2018 software.

rpsL gene [2] = assay: rpsL gene mutation rate in the PCR amplification system (Pfu DNA polymerase, mutagen added directly to the PCR system); assay type: biochemical, Escherichia coli; settings: for Mutation Rate of rpsL in PCR (mean ± SD): mean of 4 experiments; for Mutation Rate of rpsL in PCR (single experiment): single replicate
Protocol: The PCR system was as follows: 10 × PCR buffer (Mg^2+) 5 μL, dNTP 2 μL, pMOL21 plasmid template 1 μL, upstream and downstream primers 1 μL, Pfu DNA polymerase 0.5 μL, ddH2O supplemented to […] (nitrosamine compounds were directly added to the PCR system).
The PCR program was as follows: predenaturation at 95 °C for 5 min, denaturation at 94 °C for 30 s, annealing at 55 °C for 30 s, extension at 72 °C for 120 s, 25 cycles, full extension at 72 °C for 10 min, and storage at 16 °C.
The PCR products were recovered and ligated with restriction enzymes (MscI, BamH1), transformed into MF101 strains, plated on ampicillin-containing plates to determine the total number of transformed cells, and plated on ampicillin- and streptomycin-containing plates to identify rpsL gene-mutated colonies.
We measured the mutation rate of mutagen-induced rpsL gene mutations in the PCR system. The mutagen was added directly to the PCR system to determine the mutation rate of the rpsL gene during DNA amplification.

rpsL gene [3] = assay: rpsL gene mutation rate in the RCA reaction system (phi29 DNA polymerase, mutagen added to the amplification reaction); assay type: biochemical, Escherichia coli; settings: for Mutation Rate of rpsL in the RCA reaction (mean ± SD): mean of 4 experiments; for Mutation Rate of rpsL in the RCA reaction (single experiment): single replicate
Protocol: Heat denaturation of samples and annealing reaction system of primers and plasmids: 1 μL of 10 × phi29 DNA polymerase reaction buffer, 2.5 μL of 100 μM random primers, 1 μL of plasmid pMOL21 to be amplified, and 4.3 μL of ddH2O. The above system was heated at 95 °C for 3 min and then placed on ice for 15 min.
Amplification reaction system: 10 mM dNTP 0.5 μL, 100 × BSA 0.2 μL, phi29 DNA polymerase 0.5 μL to the above reaction solution (nitrosamine compounds or EB are added to the amplification reaction system), and then incubated at 30 °C overnight.
Heat-inactivated phi29 DNA polymerase: heat at 65 °C for 10 min.
We then determined the mutation rate of mutagen-induced rpsL gene mutations in the RCA system. In this experiment, we adopted the method of directly adding a mutagen to the RCA amplification reaction solution to provide a direct mutagenic environment for the amplification of the rpsL gene. This method avoids the possibility of affecting the mutagenicity of NDEA, NDPA, or EB during thermal denaturation.

[4] = 100 ppm mutagen in RCA reaction
[5] = 1000 ppm mutagen in RCA reaction

In the case of CC[n+]1c(-c2ccccc2)c2cc(N)ccc2c2ccc(N)cc21 [EB, ethidium bromide, reference compound], the “Mutation Rate of rpsL (mean ± SD)” value (rpsL gene [1]; 10 ppm mutagen) is reported as 3.71 10^−6 and 3.71 ± 0.502 10^−6, the “Mutation Rate of rpsL (single experiment)” value (rpsL gene [1]; 10 ppm mutagen) is reported as 3.65 10^−6 and 4.38 10^−6 and 3.64 10^−6 and 3.16 10^−6 and the “Mutation Rate of rpsL (mean ± SD)” value (rpsL gene [1]; 100 ppm mutagen) is reported as 5.78 10^−6 and 5.78 ± 0.728 10^−6. For the same compound, the “Mutation Rate of rpsL (single experiment)” value (rpsL gene [1]; 100 ppm mutagen) was 6.50 10^−6 and 6.05 10^−6 and 4.78 10^−6 and 5.79 10^−6, the “Mutation Rate of rpsL (mean ± SD)” value (rpsL gene [1]; 1000 ppm mutagen) was 7.87 10^−6 and 7.87 ± 1.842 10^−6 and the “Mutation Rate of rpsL (single experiment)” value (rpsL gene [1]; 1000 ppm mutagen) was 9.82 10^−6 and 6.71 10^−6 and 5.94 10^−6 and 9.01 10^−6. The “genotoxicity / mutagenicity in words” value (rpsL gene [1]) was “strong mutagenicity”, the “Mutation Rate of rpsL in PCR (mean ± SD)” value (rpsL gene [2]; 10 ppm mutagen in PCR system) was 4.06 10^−6 and 4.06 ± 0.471 10^−6 and the “Mutation Rate of rpsL in PCR (single experiment)” value (rpsL gene [2]; 10 ppm mutagen in PCR system) was 4.23 10^−6 and 4.47 10^−6 and 4.15 10^−6 and 3.38 10^−6. The “Mutation Rate of rpsL in PCR (mean ± SD)” value (rpsL gene [2]; 100 ppm mutagen in PCR system) was 6.01 10^−6 and 6.01 ± 1.319 10^−6, the “Mutation Rate of rpsL in PCR (single experiment)” value (rpsL gene [2]; 100 ppm mutagen in PCR system) was 5.99 10^−6 and 7.69 10^−6 and 4.47 10^−6 and 5.88 10^−6 and the “Mutation Rate of rpsL in PCR (mean ± SD)” value (rpsL gene [2]; 1000 ppm mutagen in PCR system) was 10.35 10^−6 and 10.35 ± 1.143 10^−6. The “Mutation Rate of rpsL in PCR (single experiment)” value (rpsL gene [2]; 1000 ppm mutagen in PCR system) was 11.98 10^−6 and 9.32 10^−6 and 10.15 10^−6 and 9.94 10^−6, the “Mutation Rate of rpsL in the RCA reaction (mean ± SD)” value (rpsL gene [3]; 10 ppm mutagen in RCA reaction) was 3.81 10^−6 and 3.81 ± 0.335 10^−6 and the “Mutation Rate of rpsL in the RCA reaction (single experiment)” value (rpsL gene [3]; 10 ppm mutagen in RCA reaction) was 3.62 10^−6 and 4.31 10^−6 and 3.69 10^−6. The “Mutation Rate of rpsL in the RCA reaction (mean ± SD)” value (rpsL gene [3]; [4]) was 6.38 10^−6 and 6.38 ± 0.915 10^−6, the “Mutation Rate of rpsL in the RCA reaction (single experiment)” value (rpsL gene [3]; [4]) was 7.26 10^−6 and 6.66 10^−6 and 5.10 10^−6 and 6.49 10^−6 and the “Mutation Rate of rpsL in the RCA reaction (mean ± SD)” value (rpsL gene [3]; [5]) was 7.35 10^−6 and 7.35 ± 2.615 10^−6. For the same compound, the “Mutation Rate of rpsL in the RCA reaction (single experiment)” value (rpsL gene [3]; [5]) was 6.86 10^−6 and 4.07 10^−6 and 10.34 10^−6 and 8.11 10^−6.

With CCN(CC)N=O [NDEA, N-diethylnitrosamine] the “Mutation Rate of rpsL (mean ± SD)” value (rpsL gene [1]; 10 ppm mutagen) was 2.42 10^−6 and 2.42 ± 0.717 10^−6, the “Mutation Rate of rpsL (single experiment)” value (rpsL gene [1]; 10 ppm mutagen) was 1.44 10^−6 and 2.34 10^−6 and 2.95 10^−6 and 2.96 10^−6 and the “Mutation Rate of rpsL (mean ± SD)” value (rpsL gene [1]; 100 ppm mutagen) was 3.76 10^−6 and 3.76 ± 0.852 10^−6. For the same compound, the “Mutation Rate of rpsL (single experiment)” value (rpsL gene [1]; 100 ppm mutagen) was 3.32 10^−6 and 2.81 10^−6 and 4.23 10^−6 and 4.69 10^−6, the “Mutation Rate of rpsL (mean ± SD)” value (rpsL gene [1]; 1000 ppm mutagen) was 4.82 10^−6 and 4.82 ± 1.738 10^−6 and the “Mutation Rate of rpsL (single experiment)” value (rpsL gene [1]; 1000 ppm mutagen) was 2.89 10^−6 and 3.85 10^−6 and 6.02 10^−6 and 6.54 10^−6. For the same compound, the “genotoxicity / mutagenicity in words” value (rpsL gene [1]) was “high genotoxicity”, the “Mutation Rate of rpsL in PCR (mean ± SD)” value (rpsL gene [2]; 10 ppm mutagen in PCR system) was 2.83 10^−6 and 2.83 ± 1.197 10^−6 and the “Mutation Rate of rpsL in PCR (single experiment)” value (rpsL gene [2]; 10 ppm mutagen in PCR system) was 1.28 10^−6 and 2.65 10^−6 and 4.11 10^−6 and 3.30 10^−6. The “Mutation Rate of rpsL in PCR (mean ± SD)” value (rpsL gene [2]; 100 ppm mutagen in PCR system) was 4.51 10^−6 and 4.51 ± 1.314 10^−6, the “Mutation Rate of rpsL in PCR (single experiment)” value (rpsL gene [2]; 100 ppm mutagen in PCR system) was 3.70 10^−6 and 3.09 10^−6 and 5.47 10^−6 and 5.77 10^−6 and the “Mutation Rate of rpsL in PCR (mean ± SD)” value (rpsL gene [2]; 1000 ppm mutagen in PCR system) was 5.02 10^−6 and 5.02 ± 1.890 10^−6. For the same compound, the “Mutation Rate of rpsL in PCR (single experiment)” value (rpsL gene [2]; 1000 ppm mutagen in PCR system) was 3.16 10^−6 and 3.68 10^−6 and 6.23 10^−6 and 7.03 10^−6, the “Mutation Rate of rpsL in the RCA reaction (mean ± SD)” value (rpsL gene [3]; 10 ppm mutagen in RCA reaction) was 2.49 10^−6 and 2.49 ± 0.692 10^−6 and the “Mutation Rate of rpsL in the RCA reaction (single experiment)” value (rpsL gene [3]; 10 ppm mutagen in RCA reaction) was 1.79 10^−6 and 2.02 10^−6 and 3.20 10^−6 and 2.96 10^−6. The “Mutation Rate of rpsL in the RCA reaction (mean ± SD)” value (rpsL gene [3]; [4]) was 3.62 10^−6 and 3.62 ± 0.316 10^−6, the “Mutation Rate of rpsL in the RCA reaction (single experiment)” value (rpsL gene [3]; [4]) was 3.47 10^−6 and 3.38 10^−6 and 3.55 10^−6 and 4.08 10^−6 and the “Mutation Rate of rpsL in the RCA reaction (mean ± SD)” value (rpsL gene [3]; [5]) was 5.54 10^−6 and 5.54 ± 2.444 10^−6. The “Mutation Rate of rpsL in the RCA reaction (single experiment)” value (rpsL gene [3]; [5]) was 3.14 10^−6 and 3.96 10^−6 and 6.59 10^−6 and 8.46 10^−6.

For CCCN(CCC)N=O [NDPA, N-dipropylnitrosamine], the “Mutation Rate of rpsL (mean ± SD)” value (rpsL gene [1]; 10 ppm mutagen) was 2.67 10^−6 and 2.67 ± 0.909 10^−6, the “Mutation Rate of rpsL (single experiment)” value (rpsL gene [1]; 10 ppm mutagen) was 2.34 10^−6 and 1.70 10^−6 and 2.80 10^−6 and 3.86 10^−6 and the “Mutation Rate of rpsL (mean ± SD)” value (rpsL gene [1]; 100 ppm mutagen) was 4.75 10^−6 and 4.75 ± 1.417 10^−6. For the same compound, the “Mutation Rate of rpsL (single experiment)” value (rpsL gene [1]; 100 ppm mutagen) was 5.72 10^−6 and 2.66 10^−6 and 5.09 10^−6 and 5.53 10^−6, the “Mutation Rate of rpsL (mean ± SD)” value (rpsL gene [1]; 1000 ppm mutagen) was 5.14 10^−6 and 5.14 ± 1.433 10^−6 and the “Mutation Rate of rpsL (single experiment)” value (rpsL gene [1]; 1000 ppm mutagen) was 7.05 10^−6 and 4.20 10^−6 and 5.41 10^−6 and 3.89 10^−6. For the same compound, the “genotoxicity / mutagenicity in words” value (rpsL gene [1]) was “high genotoxicity”, the “Mutation Rate of rpsL in PCR (mean ± SD)” value (rpsL gene [2]; 10 ppm mutagen in PCR system) was 2.93 10^−6 and 2.93 ± 1.430 10^−6 and the “Mutation Rate of rpsL in PCR (single experiment)” value (rpsL gene [2]; 10 ppm mutagen in PCR system) was 1.83 10^−6 and 1.92 10^−6 and 3.05 10^−6 and 4.91 10^−6. For the same compound, the “Mutation Rate of rpsL in PCR (mean ± SD)” value (rpsL gene [2]; 100 ppm mutagen in PCR system) was 4.98 10^−6 and 4.98 ± 1.330 10^−6, the “Mutation Rate of rpsL in PCR (single experiment)” value (rpsL gene [2]; 100 ppm mutagen in PCR system) was 6.16 10^−6 and 3.08 10^−6 and 5.45 10^−6 and 5.21 10^−6 and the “Mutation Rate of rpsL in PCR (mean ± SD)” value (rpsL gene [2]; 1000 ppm mutagen in PCR system) was 6.85 10^−6 and 6.85 ± 1.316 10^−6. The “Mutation Rate of rpsL in PCR (single experiment)” value (rpsL gene [2]; 1000 ppm mutagen in PCR system) was 7.72 10^−6 and 8.12 10^−6 and 6.32 10^−6 and 5.25 10^−6, the “Mutation Rate of rpsL in the RCA reaction (mean ± SD)” value (rpsL gene [3]; 10 ppm mutagen in RCA reaction) was 2.98 10^−6 and 2.98 ± 0.585 10^−6 and the “Mutation Rate of rpsL in the RCA reaction (single experiment)” value (rpsL gene [3]; 10 ppm mutagen in RCA reaction) was 2.18 10^−6 and 3.59 10^−6 and 3.05 10^−6 and 3.10 10^−6. The “Mutation Rate of rpsL in the RCA reaction (mean ± SD)” value (rpsL gene [3]; [4]) was 5.59 10^−6 and 5.59 ± 2.287 10^−6, the “Mutation Rate of rpsL in the RCA reaction (single experiment)” value (rpsL gene [3]; [4]) was 4.90 10^−6 and 3.85 10^−6 and 8.96 10^−6 and 4.67 10^−6 and the “Mutation Rate of rpsL in the RCA reaction (mean ± SD)” value (rpsL gene [3]; [5]) was 6.2 10^−6 and 6.20 ± 1.110 10^−6. The “Mutation Rate of rpsL in the RCA reaction (single experiment)” value (rpsL gene [3]; [5]) was 7.78 10^−6 and 5.18 10^−6 and 5.96 10^−6 and 5.87 10^−6.
